Data taken from US20060020029A1, “Pharmaceutical compositions from ethnobotanicals” (priority 2004, published 2006).
pEC50: −log10 of the molar value. Values after ≈ are worked out from the molar mass of the structure shown. Values joined by “and” are separate entries in the source; they are usually repeats but may differ in a detail not shown here. Equal entries are not always repeated.

Key:
RSV-A6 57754 = assay: CPE assay, RSV-A6 57754 in Hep-2 cells
Protocol: (§3) The cell line was propagated in MEM supplemented with 10% heat-inactivated fetal bovine serum (FBS) containing 100 μg/ml of antibiotics (streptomycin/penicillin). […] The overnight medium (MEM containing 10% FBS) was removed, and wells were rinsed twice with 1× phosphate buffer saline (PBS, 200 μl) before adding 10×TCID50 of RSV suspension in fresh medium (MEM plus 2% FBS) to each well, except for cell only wells. […] CellTiter 96 Aqueous Non-Radioactive Cell Proliferation Assay (Promega) was used to monitor the antiviral activity following the manufacturer's instruction. After incubation, the cells were rinsed twice with 200 μl of 1×PBS prior to the addition of 100 μl of fresh medium (MEM plus 10% FBS). […] The extent of cell viability was measured at 490 nm using an ELISA reader, and the absorbance was used to calculate percent inhibition. Antiviral activity of each EB fraction or ribavirin is expressed as IC50, which represents the concentration of the test substance required to reduce the virus infection (as measured by the destruction of the host cells) by 50%.
(§4) Hep-2 cells were used in the CPE assay to determine anti-RSV properties.

[1] = test system: Herpes simplex virus type 1 (MacIntyre strain); assay: CPE assay, HSV-1 specificity; type: cell-based
Protocol: (§1) To determine whether the fractions are specific RSV inhibitors rather than general antiviral agents, the inventors tested them against influenza type A/Shangdong/09/93 (H3N2), herpes simplex type 1 (MacItyre), and herpes simplex type 2 (MS) using the CPE assay system.
(§2) CJ4-16-4 was tested using influenza type A, herpes simplex virus type 1, and herpes simplex virus type 2 using the CPE assay with MDCK or Vero cells.

[2] = Stability in methanol (HPLC); type: physicochemical
Protocol: The stability of 3,5 Dicaffeoyl-Quinic Acid (3,5-DCQA) was first evaluated in methanol. 3.8 mg 3,5-DCQA was dissolved in 0.2375 ml MeOH (conc.=16 mg/ml), and then diluted as ½, ¼ and ⅛ dilution, respectively. All samples were subjected to HPLC in 0 Day, 1 Day, 2 Day and 4 Day, and the Area% of 3,5-DCQA was calculated.

[3] = Stability in increasing concentrations of water (HPLC); type: physicochemical; details: for Area % of 3,5-DCQA (HPLC): Table 24 (in H2O)
Protocol: The rate of degradation of 3,5-DCQA was again tested in increasing concentrations of water. 5.4 mg 3,5-DCQA was dissolved in 0.266ml DMSO (conc.=20.3 mg/ml), and then diluted with water to ½, ¼ and ⅛ dilution, respectively. All samples were subjected on HPLC in 0 Day, 1 Day, 2 Day and 4 Day, and Area % of 3,5-DCQA was calculated.

[4] = test system: Herpes simplex virus type 2 (MS-strain); assay: CPE assay, HSV-2 specificity; type: cell-based
Protocol: as §1, §2

RSV-A2 = assay: CPE assay, RSV-A2 in Hep-2 cells
Protocol: as §3, §4

[5] = test system: Influenza A-Shangdong/09/93 (H3N2); assay: CPE assay, influenza A specificity; type: cell-based, influenza type A
Protocol: as §1, §2

[6] = test system: RSV-Long (Cotton Rat adapted strain); assay: CPE assay, RSV-Long cotton rat adapted strain; type: cell-based, respiratory syncytial virus
MDCK cells = assay: Cytotoxicity in MDCK cells
RSV (Long strain) = assay: CPE assay, RSV-Long in Hep-2 cells; type: cell-based, respiratory syncytial virus; details: Hep-2 cells, CPE assay; for EC50: μM using the estimated FW-516
RSV A2 = assay: Cotton rat RSV infection model, pulmonary titer; details: for RSV Pulmonary Titer Mean ± SD / RSV Pulmonary Titer in individual CR (A-D): harvest day 4
Protocol: All groups consisted of four randomly selected cotton rats. All test materials were administered intraperitoneally with once daily dosing. The placebo group was administered distilled water at volumes and schedules identical to the other groups receiving investigational test articles. In general, timing of administration of ribavarin to the ribavarin-treated group paralleled that of the other treatment groups except that initiation of dosing was on Day 1 for Experiments 1 and 2 and Day 0 for Experiment 3. The dose of ribavarin was 90 mg/kg/day in Experiments 1 and 3 and 180 mg/kg/day in Experiment 2. All animals were inoculated intranasally with approximately 100 median cotton rat infectious doses (CRID50) of RSV A2 on Day 0. Experiments were terminated on either Day 3 or 4 post-infection. […] On the day that the experiment was terminated, all CRs were sacrificed using CO2 to asphyxiate the animals. The lungs from the animals were subsequently removed. The lungs of sacrificed animals were removed, rinsed in sterile phosphate-buffered saline (PBS; pH 7.2) and weighed. Each set of lungs was then transpleurally lavaged using 3 ml of 2% FCS-MEM media. The resulting lung fractions were kept on ice until they were assayed for RSV. The lung fractions of animals from each group were tested for the levels of RSV present.

RSV B = assay: CPE assay, RSV-B in Hep-2 cells; type: cell-based, respiratory syncytial virus
RSV-Long = assay: Time of addition, CPE assay; type: cell-based, respiratory syncytial virus; details: for EC50, time of addition: Hep-2; for pEC50: estimated FW-516
Protocol: Determine the Time of Addition for EB Fractions. […] This activity is related to the life cycle of the virus and the step in the cycle where the compounds act. In this example, experiments were performed to investigate the effect of the time of addition of EB fractionated products on anti-RSV activity.
Mechanism of action studies were performed as follows. Mechanism of action studies were performed using CJ4-16-4 in a CPE assay with Hep-2 cells.

[7] = CPE assay with MDCK or Vero cells
[8] = 12.5 mg/kg/day B.I.D i.p. D0-D3, 50% DMSO
[9] = 25 mg/kg/day B.I.D i.p. D0-D3, 50% DMSO

Compound: O=C(/C=C/c1ccc(O)c(O)c1)OC1CC(O)(C(=O)O)CC(OC(=O)/C=C/c2ccc(O)c(O)c2)C1O (centres unmarked) [CJ4-16-4, 3,5-di-O-caffeoylquinic acid]
- EC50, RSV-A6 57754 (RSV-A6 57754; Hep-2 cells, CPE assay): 0.08 µg/mL (≈ 0.155 µM)
- EC50 (RSV-A6 57754; read-out: EC50, RSV-A6 57754, μM using the estimated FW-516): 0.16 µM
- activity against HSV-1 (in words) [1]: inactive
- EC50, Herpes simplex virus type 1 (MacIntyre strain) [1, 7]: > 50 µg/mL
- EC50 ([1]; μM using the estimated FW-516): > 100 µM
- Area % of 3,5-DCQA (HPLC) ([2]; Stock (16 mg/ml), 0 Day): 97.40 Area%
- Area % of 3,5-DCQA (HPLC) ([2]; Stock (16 mg/ml), 1 Day): 97.16 Area%
- Area % of 3,5-DCQA (HPLC) ([2]; Stock (16 mg/ml), 2 Day): 96.42 Area%
- Area % of 3,5-DCQA (HPLC) ([2]; Stock (16 mg/ml), 4 Day): 95.39 Area%
- Area % of 3,5-DCQA (HPLC) ([2]; ¼ dilution, 2 Day): 96.65 Area%
- Area % of 3,5-DCQA (HPLC) ([2]; ¼ dilution, 4 Day): 95.88 Area%
- Area % of 3,5-DCQA (HPLC) ([2]; ½ dilution, 2 Day): 97.03 Area%
- Area % of 3,5-DCQA (HPLC) ([2]; ½ dilution, 4 Day): 95.66 Area%
- Area % of 3,5-DCQA (HPLC) ([2]; ⅛ dilution, 0 Day): 97.32 Area%
- Area % of 3,5-DCQA (HPLC) ([2]; ⅛ dilution, 1 Day): 96.84 Area%
- Area % of 3,5-DCQA (HPLC) ([2]; ⅛ dilution, 2 Day): 94.44 Area%
- Area % of 3,5-DCQA (HPLC) ([2]; ⅛ dilution, 4 Day): 94.27 Area%
- Area % of 3,5-DCQA (HPLC) ([3]; Stock (20.3 mg/ml), 0 Day): 97.05 Area %
- Area % of 3,5-DCQA (HPLC) ([3]; Stock (20.3 mg/ml), 1 Day): 96.09 Area %
- Area % of 3,5-DCQA (HPLC) ([3]; Stock (20.3 mg/ml), 2 Day): 93.94 Area %
- Area % of 3,5-DCQA (HPLC) ([3]; Stock (20.3 mg/ml), 4 Day): 91.90 Area %
- Area % of 3,5-DCQA (HPLC) ([3]; ¼ dilution with water, 1 Day): 92.79 Area %
- Area % of 3,5-DCQA (HPLC) ([3]; ¼ dilution with water, 2 Day): 91.06 Area %
- Area % of 3,5-DCQA (HPLC) ([3]; ¼ dilution with water, 4 Day): 88.14 Area %
- Area % of 3,5-DCQA (HPLC) ([3]; ½ dilution with water, 1 Day): 94.62 Area %
- Area % of 3,5-DCQA (HPLC) ([3]; ½ dilution with water, 2 Day): 92.71 Area %
- Area % of 3,5-DCQA (HPLC) ([3]; ½ dilution with water, 4 Day): 90.20 Area %
- Area % of 3,5-DCQA (HPLC) ([3]; ⅛ dilution with water, 0 Day): 96.91 Area %
- Area % of 3,5-DCQA (HPLC) ([3]; ⅛ dilution with water, 1 Day): 92.60 Area %
- Area % of 3,5-DCQA (HPLC) ([3]; ⅛ dilution with water, 2 Day): 89.02 Area %
- Area % of 3,5-DCQA (HPLC) ([3]; ⅛ dilution with water, 4 Day): 85.55 Area %
- 3,5-DCQA changed into 4,5-DCQA ([3]; fourth day in solution): over 11%
- activity against HSV-2 (in words) [4]: inactive
- EC50, Herpes simplex virus type 2 (MS-strain) [4, 7]: > 50 µg/mL
- EC50 ([4]; μM using the estimated FW-516): > 100 µM
- EC50, RSV-A2 (RSV-A2; Hep-2 cells, CPE assay): 0.084 µg/mL (≈ 0.163 µM)
- EC50 (RSV-A2; read-out: EC50, RSV-A2, μM using the estimated FW-516): 0.163 µM
- activity against Influenza A (in words) [5]: inactive
- EC50, Influenza A-Shangdong/09/93 (H3N2) [5, 7]: > 50 µg/mL
- EC50 ([5]; μM using the estimated FW-516): > 100 µM
- EC50, RSV-Long (Cotton Rat adapted strain) ([6]; Hep-2 cells, CPE assay): 1.4 µg/mL (≈ 2.71 µM)
- EC50 ([6]; μM using the estimated FW-516): 2.7 µM
- CC50, MDCK (MDCK cells; isolated compounds): > 200 µg/mL
- CC50 (MDCK cells; read-out: CC50, MDCK, μM using the estimated FW-516): > 400 µM
- CC50 (Vero cells): > 400 µM
- CC50, Vero (Vero cells): > 200 µg/mL
- EC50, RSV-Long (RSV (Long strain)): 0.035 µg/mL (≈ 0.0678 µM)
- EC50 (RSV (Long strain)): 0.068 µM
- EC50 (RSV (Long strain); listed as 3,5 dicaffeoyl-quinic acid): ~0.068 µM
- EC50 (RSV (Long strain); listed as IV): 0.068 µM
- inhibition of RSV infection in cotton rat model (RSV A2; 12.5 mg/kg/day): over one log
- RSV Pulmonary Titer Mean ± SD (RSV A2; [8]): 3.3 ± 0.0 log10/g lung
- RSV Pulmonary Titer in individual CR (A-D) (RSV A2; [8]): 3.3 log10/g lung
- Reduction (RSV A2; 12.5 mg/kg/day B.I.D i.p. D0-D3, vs placebo): 1.1 Log 10
- RSV Pulmonary Titer Mean ± SD (RSV A2; [9]): 3.2 ± 0.3 log10/g lung
- RSV Pulmonary Titer in individual CR (A-D) (RSV A2; [9]): 2.8 log10/g lung and 3.3 log10/g lung (3×)
- Reduction (RSV A2; 25 mg/kg/day B.I.D i.p. D0-D3, vs placebo): 1.2 Log 10
- CC50 (Hep-2 cells): > 400 µM
- CC50, Hep 2 (Hep-2 cells): > 200 µg/mL
- cytotoxicity in Hep-2 cells (in words) (Hep-2 cells): no significant cytotoxicity
- EC50, RSV-B (Washington) (RSV B; Hep-2 cells, CPE assay): 0.086 µg/mL (≈ 0.167 µM)
- EC50 (RSV B; μM using the estimated FW-516, read-out: EC50, RSV-B (Washington)): 0.167 µM
- EC50, time of addition (RSV-Long; 0-Hr-Post-infection): 0.051 µg/mL
- pEC50 (RSV-Long; 0-Hr-Post-infection): 7.00
- EC50, time of addition (RSV-Long; 2-Hr-Post-infection): 0.036 µg/mL
- pEC50 (RSV-Long; 2-Hr-Post-infection): 7.15
- EC50, time of addition (RSV-Long; 4-Hr-Post-infection): 0.039 µg/mL
- pEC50 (RSV-Long; 4-Hr-Post-infection): 7.12
- EC50, time of addition (RSV-Long; 6-Hr-Post-infection): 0.043 µg/mL
- pEC50 (RSV-Long; 6-Hr-Post-infection): 7.08
- EC50, time of addition (RSV-Long; 8-Hr-Post-infection): 0.039 µg/mL
- pEC50 (RSV-Long; 8-Hr-Post-infection): 7.12
- EC50, time of addition (RSV-Long; 24-Hr-Post-infection): 0.069 µg/mL
- pEC50 (RSV-Long; 24-Hr-Post-infection): 6.89
